Laboratory results taken from patent US20120232038A1, “CRYSTALLINE FORMS OF (3R, 3AS, 6AR) - HEXAHYDROFURO [2,3-B] FURAN-3-YL (1S,2R) - (1-{4-[ (DIETHOXYPHOSPHORYL) METHOXY] PHENY1}-3-HYDROXY-4- [4-METHOXY-N- (2-METHYLPROPYL) BENZENESUL - FONAMIDO] BUTAN-2-YL) CARBAMATE” (Gilead Sciences, Inc., priority 2009, published 2012).

Legend:
Format in all cases: physicochemical
[1] = Form stability on extended exposure to water (water slurry, XRPD); details: slurried in water, 2 week sample, XRPD (FIG. 6)
Protocol: Approximately 15-50 mg of Compound I are weighed and transferred to each of fifteen vials each equipped with a mini magnetic stir bar. The starting material used for this experiment is an amorphous solid based on the X-ray powder diffraction (XRPD) pattern (See FIG. 1). To each vial is added 1 mL of various solvents. The slurries are allowed to stir for two weeks at room temperature (˜22° C.). XRPD characterization of the excess solids were performed at ˜1 week and ˜2 week time points. A sample of 300 μL of the suspension is removed from each vial, transferred to a centrifuge filter (Costar, 0.45 micron) and centrifuged at 1000 rpm for 2 minutes. Solids in the wet cake form are analyzed using XRPD analysis (PANalytical X'Pert PRO X-ray powder diffractometer). This diffractometer uses Cu-Ka radiation and it operates under reflection mode. Scan range is from 2 to 40 degree 2 theta. After air drying the small sample, (XRPD) analysis is performed again to monitor any change in the diffraction pattern between the wet and dry material. TGA is run on the saturated solution to determine the solubility of the equilibrating solids in the solvent. […]

[2] = Dynamic vapor sorption of Compound I crystalline Form I
Source text: (§1) Other benefits that crystalline Form I offers include but are not limited to purification and isolation of the crystalline form with respect to the solution and facilitation of storage and handling during the formulation development and manufacturing of drug product.

[3] = Moisture uptake of Compound I amorphous material at room temperature under controlled relative humidity
Source text: as §1

Structure (SMILES) | solid form after extended exposure to water [1] | hygroscopicity [2] | water absorbed ([2]; 90% relative humidity) [%] | Weight gain after 5 days ([3]; 75% Relative Humidity) [%] | Weight gain after 11 days ([3]; 75% Relative Humidity) [%] | Weight gain after 5 days ([3]; 97% Relative Humidity) [%]
CCOP(=O)(COc1ccc(CC(NC(=O)OC2CO[C@H]3OCC[C@@H]23)[C@H](O)CN(CC(C)C)S(=O)(=O)c2ccc(OC)cc2)cc1)OCC (stereo partly drawn) [Form I] | remains as the same form | not hygroscopic | 0.4 | – | – | –
CCOP(=O)(COc1ccc(CC(NC(=O)OC2CO[C@H]3OCC[C@@H]23)[C@H](O)CN(CC(C)C)S(=O)(=O)c2ccc(OC)cc2)cc1)OCC (stereo partly drawn) [Compound I amorphous material] | – | – | – | 0.6 | 1.0 | 3.8
